Laboratory results: EP4603105A1, “PHARMACEUTICAL COMPOSITION CONTAINING CYCLIC COMPOUND HAVING SELECTIVE KRAS INHIBITORY EFFECT AGAINST HRAS AND NRAS” (CHUGAI SEIYAKU KABUSHIKI KAISHA, priority 2022, dated 2024)
Where two headings read alike, the source gives them in different places.

Legend:
[1] = system: human lung cancer strain NCI-H441; experiment: NCI-H441 cell proliferation inhibitory activity (CellTiter-Glo, 4 days); format: cell-based; details: read-out: NCl-H441 IC50
Summary of the method: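 Proliferation was scored by […] measured after the reagent was added to cultures kept at 37°C in 5% carbon dioxide.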

[2] = target: GDP-bound NRAS wild-type protein (Homo sapiens, UniProt P01111); experiment: Binding to NRAS by surface plasmon resonance (SPR), KD and KD ratio to KRAS
GDP-bound NRAS wild-type protein, sequence (P01111 whole entry): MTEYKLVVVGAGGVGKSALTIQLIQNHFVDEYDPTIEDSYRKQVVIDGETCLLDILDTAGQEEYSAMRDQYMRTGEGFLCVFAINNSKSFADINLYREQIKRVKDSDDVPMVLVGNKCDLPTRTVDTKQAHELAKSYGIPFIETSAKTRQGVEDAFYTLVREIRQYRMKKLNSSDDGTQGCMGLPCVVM
Summary of the method: (§1)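 Single-cycle kinetics on GDP-loaded biotin-Avi RAS captured to ~100–300 RU; 75 s ascending injections, 100 µL/min, 30°C. HBS pH 7.4 + 10 mM MgCl2/10 µM GDP/4% DMSO. 1:1 fit, KD.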

HRAS wild-type protein = HRAS wild-type protein (Homo sapiens, UniProt P01112); experiment: Binding to HRAS by surface plasmon resonance (SPR), KD and KD ratio to KRAS
HRAS wild-type protein, sequence (P01112 whole entry): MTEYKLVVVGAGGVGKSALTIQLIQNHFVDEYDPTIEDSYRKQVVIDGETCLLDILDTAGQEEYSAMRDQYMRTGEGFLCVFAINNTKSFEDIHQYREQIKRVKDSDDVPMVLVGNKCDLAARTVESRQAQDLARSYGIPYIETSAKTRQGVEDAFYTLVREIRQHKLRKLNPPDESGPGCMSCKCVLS
Summary of the method: as §1

[3] = target: GDP-bound KRAS wild-type protein (Homo sapiens, UniProt P01116); experiment: Binding to KRAS by surface plasmon resonance (SPR), dissociation constant KD
GDP-bound KRAS wild-type protein, sequence (P01116 1-188 isoform P01116-2): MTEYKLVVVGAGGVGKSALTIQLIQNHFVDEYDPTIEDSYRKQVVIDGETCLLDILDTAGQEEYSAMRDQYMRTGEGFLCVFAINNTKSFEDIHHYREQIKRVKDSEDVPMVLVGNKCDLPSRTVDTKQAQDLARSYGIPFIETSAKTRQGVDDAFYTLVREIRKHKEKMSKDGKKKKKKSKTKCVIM
Summary of the method: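 Read-out is KD from 1:1 fitting of single-cycle kinetics sensorgrams, blank-cycle and reference-surface corrected. Proteins were GDP-loaded, biotinylated Avi-fusions freshly captured each cycle at roughly 100–300 RU. Runs were at 30°C in HBS pH 7.4 with MgCl2, GDP and 4% DMSO.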

[4] = ratio of KD for GDP-bound NRAS wild-type protein to KD for KRAS
[5] = ratio of KD for HRAS wild-type protein to KD for KRAS
[6] = 50% proliferation inhibitory concentration, four days
[7] = ratio of KD with respect to GDP-bound NRAS wild-type protein to KD with respect to KRAS
[8] = ratio of KD with respect to HRAS wild-type protein to KD with respect to KRAS
[9] = Single Cycle Kinetics, 1:1 binding model

| Compound | IC50 ([1]; NCI-H441 cells, 4 days) [nM] | NRAS /KRAS [2, 4] | HRAS /KRAS (HRAS wild-type protein; [5]) | Kd ([3]; Single Cycle Kinetics) [nM] | Kd ([3]; 1:1 binding model) [nM] | IC50 [1, 6] [nM] | NRAS /KRAS [2, 7] | HRAS /KRAS (HRAS wild-type protein; [8]) | Kd [3, 9] [nM] |
| --- | --- | --- | --- | --- | --- | --- | --- | --- | --- |
| CCCO[C@@H]1C[C@H]2C(=O)NC3(CC(C)(C)C3)C(=O)N(C)[C@@H](C3CCCC3)C(=O)N(C)[C@H](C(=O)N(C)CC)CC(=O)N(C)[C@@H](COCC)C(=O)N[C@@H]([C@@H](C)CC)C(=O)N3C[C@@H](C)C[C@H]3C(=O)N(C)[C@H]3C/C=C\CCN(C3=O)[C@@H](Cc3ccc(C)cc3)C(=O)N(C)CC(=O)N[C@@H](CCc3cc(F)c(C(F)(F)F)c(F)c3)C(=O)N2C1 [PP3460] | 115 | A (a compound having 10 or more and less than 20 is denoted as A) | A (a compound having 10 or more and less than 20 is denoted as A) | 3.1 |  |  |  |  |  |
| CCC[C@H]1C(=O)N[C@@H]([C@@H](C)CC)C(=O)N(C)CC(=O)N(C)[C@H]2C/C=C\CCN(C2=O)[C@@H](Cc2ccc(C(F)(F)F)cc2)C(=O)N(C)CC(=O)N[C@@H](CCc2cc(F)c(C(F)(F)F)c(F)c2)C(=O)N2CC3(CC3)C[C@H]2C(=O)N(C)C2(CCC2)C(=O)N(C)[C@@H](C(CC)CC)C(=O)N(C)[C@H](C(=O)N(C)C)CC(=O)N1C [PP3357] | 8.4 | A (a compound having 10 or more and less than 20 is denoted as A) | A (a compound having 10 or more and less than 20 is denoted as A) | 0.82 |  |  |  |  |  |
| C=CCN1CC(=O)N(C)[C@H]2C/C=C\CCN(C2=O)[C@@H](Cc2ccc(C(F)F)cc2)C(=O)N(C)CC(=O)N[C@@H](CCc2ccc(C(F)(F)F)cc2Cl)C(=O)N2C[C@H](OC(C)C)C[C@H]2C(=O)N(C)C2(CCC2)C(=O)N(C)[C@@H](C(CC)CC)C(=O)N(C)[C@H](C(=O)N(C)C)CC(=O)N(C)[C@@H](CC2CC2)C(=O)N[C@@H]([C@@H](C)OCCC)C1=O [PP3493] | 32.1 | AA (a compound having 20 or more is denoted as AA) | A (a compound having 10 or more and less than 20 is denoted as A) | 1 |  |  |  |  |  |
| CC[C@H](C)[C@@H]1NC(=O)[C@H](COC)N(C)C(=O)C[C@@H](C(=O)N(C)C)N(C)C(=O)[C@H](C2CCCC2)N(C)C(=O)C2(CC(C)(C)C2)NC(=O)[C@@H]2C[C@@H](OC3CCCC3)CN2C(=O)[C@H](CCc2cc(F)c(C(F)(F)F)c(F)c2)NC(=O)CN(C)C(=O)[C@H](CC2CCCCC2)N2CC/C=C\C[C@@H](C2=O)N(C)C(=O)CN(C2CC2)C1=O [PP2630] | 190 | A (a compound having 10 or more and less than 20 is denoted as A) | B (a compound having 3 or more and less than 10 is denoted as B) |  | 3 |  |  |  |  |
| CCC[C@H]1C(=O)N[C@@H]([C@@H](C)CC)C(=O)N(C2CC2)CC(=O)N(C)[C@H]2C/C(F)=C\CCN(C2=O)[C@@H](Cc2ccc(C)cc2)C(=O)N(C)CC(=O)N[C@@H](CCc2cc(F)c(C(F)(F)F)c(F)c2)C(=O)N2C[C@H](OCC)C[C@H]2C(=O)N(C)C2(CCC2)C(=O)N(C)[C@@H](C2CCCC2)C(=O)N(C)[C@H](C(=O)N(C)C)CC(=O)N1C [PP3527] | 7.2 | B (a compound having 3 or more and less than 10 is denoted as B) | B (a compound having 3 or more and less than 10 is denoted as B) | 0.38 |  |  |  |  |  |
| CCC[C@H]1C(=O)N[C@@H](C2CCCC2)C(=O)N(C)CC(=O)N(C)[C@H]2C/C=C\CCN(C2=O)[C@@H](Cc2ccc(C)cc2)C(=O)N(C)CC(=O)N[C@@H](CCc2ccc(C(F)(F)F)c(Cl)c2)C(=O)N2CC3(CC3)C[C@H]2C(=O)N(C)C2(CCC2)C(=O)N(C)[C@@H]([C@@H](C)CC)C(=O)N(C)[C@H](C(=O)N(C)C)CC(=O)N1C [PP3326] | 12.6 | A (a compound having 10 or more and less than 20 is denoted as A) | A (a compound having 10 or more and less than 20 is denoted as A) | 0.22 |  |  |  |  |  |
| CCOC[C@H]1C(=O)N[C@@H]([C@@H](C)CC)C(=O)N(C)CC(=O)N(C)[C@H]2C/C=C\CCN(C2=O)[C@@H](CC2CCCCC2)C(=O)N(C)CC(=O)N[C@@H](CCc2ccc(C(F)(F)F)c(OC)c2)C(=O)N2C[C@@H](C)C[C@H]2C(=O)N(C)C2(CCC2)C(=O)N(C)[C@@H](C2CCCC2)C(=O)N(C)[C@H](C(=O)N(C)C)CC(=O)N1C [PP2371] | 41.9 | A (a compound having 10 or more and less than 20 is denoted as A) | B (a compound having 3 or more and less than 10 is denoted as B) |  | 0.64 |  |  |  |  |
| CCOC[C@H]1C(=O)N[C@@H]([C@@H](C)CC)C(=O)N(C)CC(=O)N(C)[C@H]2C/C=C\CCN(C2=O)[C@@H](Cc2ccc(C(F)(F)F)cc2)C(=O)N(C)CC(=O)N[C@@H](CCc2ccc(C(F)(F)F)c(OC)c2)C(=O)N2C[C@H](OCC)C[C@H]2C(=O)N(C)C2(CCC2)C(=O)N(C)[C@@H](C(CC)CC)C(=O)N(C)[C@H](C(=O)N(C)C)CC(=O)N1C [PP2383] | 5.2 | A (a compound having 10 or more and less than 20 is denoted as A) | A (a compound having 10 or more and less than 20 is denoted as A) |  | 0.12 |  |  |  |  |
| CCCC[C@H]1C(=O)NC2(CCC2)C(=O)N(C)[C@@H](C2CCCC2)C(=O)N(C)[C@H](C(=O)N(C)C)CC(=O)N(C)[C@@H](CC)C(=O)N[C@@H]([C@@H](C)CC)C(=O)N(C)CC(=O)N(C)[C@H]2C/C=C\CCN(C2=O)[C@@H](Cc2ccc(C(F)(F)F)cc2)C(=O)N(C)CC(=O)N[C@@H](CCc2cc(F)c(C(F)(F)F)c(F)c2)C(=O)N1C [PP1150] |  |  |  |  |  | 42.7 | AA (a compound having 20 or more is denoted as AA) | A (a compound having 10 or more and less than 20 is denoted as A) | 0.17 |
| CCC[C@H]1C(=O)N[C@@H]([C@@H](C)CC)C(=O)N(C)CC(=O)N(C)[C@H]2C/C=C\CCN(C2=O)[C@@H](Cc2ccc(C)cc2)C(=O)N(C)CC(=O)N[C@@H](CCc2ccc(C(F)(F)F)c(Cl)c2)C(=O)N2CC[C@H](OC)[C@H]2C(=O)N(C)C2(CCC2)C(=O)N(C)[C@@H](C2CCCC2)C(=O)N(C)[C@H](C(=O)N(C)C)CC(=O)N1C [PP3237] | 6.1 | A (a compound having 10 or more and less than 20 is denoted as A) | B (a compound having 3 or more and less than 10 is denoted as B) | 0.057 |  |  |  |  |  |
| C=C(C)C[C@H]1C(=O)N(C)[C@H](C(=O)N(C)C)CC(=O)N(C)[C@@H](CC(C)C)C(=O)N[C@@H]([C@@H](C)CC)C(=O)N2CCC[C@H]2C(=O)N(C)[C@H]2C/C=C\CCN(C2=O)[C@@H](Cc2ccc(C)cc2)C(=O)N(C)CC(=O)N[C@@H](CCc2cc(F)c(C(F)(F)F)c(F)c2)C(=O)N2C[C@H](OCC)C[C@H]2C(=O)N(C)C2(CCC2)C(=O)N1C [PP3351] | 34.7 | A (a compound having 10 or more and less than 20 is denoted as A) | A (a compound having 10 or more and less than 20 is denoted as A) | 4.2 |  |  |  |  |  |
| CCCO[C@@H]1C[C@H]2C(=O)NC3(CC(C)(C)C3)C(=O)N(C)[C@@H](C3CCCC3)C(=O)N(C)[C@H](C(=O)N(C)CC)CC(=O)N(C)[C@@H](COCC)C(=O)N[C@@H]([C@@H](C)CC)C(=O)N3C[C@@H](F)C[C@H]3C(=O)N(C)[C@H]3C/C=C\CCN(C3=O)[C@@H](Cc3ccc(C(F)(F)F)cc3)C(=O)N(C)CC(=O)N[C@@H](CCc3ccc(C(F)(F)F)c(OC)c3)C(=O)N2C1 [PP3417] | 13 | A (a compound having 10 or more and less than 20 is denoted as A) | A (a compound having 10 or more and less than 20 is denoted as A) | 0.36 |  |  |  |  |  |
| CCOC[C@H]1C(=O)N[C@@H]([C@@H](C)CC)C(=O)N(C)CC(=O)N(C)[C@H]2C/C=C\CCN(C2=O)[C@@H](CC2CCC(F)(F)CC2)C(=O)N(C)CC(=O)N[C@@H](CCc2cc(F)c(C(F)(F)F)c(F)c2)C(=O)N2C[C@H](OCC)C[C@H]2C(=O)NC2(CC(C)(C)C2)C(=O)N(C)[C@@H](C(CC)CC)C(=O)N(C)[C@H](C(=O)N(C)C)CC(=O)N1C [PP2450] | 29.2 | A (a compound having 10 or more and less than 20 is denoted as A) | A (a compound having 10 or more and less than 20 is denoted as A) |  | 0.55 |  |  |  |  |
| CCO[C@@H]1C[C@H]2C(=O)NC3(CCC3)C(=O)N(C)[C@@H](C(CC)CC)C(=O)N(C)[C@H](C(=O)N(C)C)CC(=O)N(C)[C@@H](CC3CCCC3)C(=O)N[C@@H]([C@@H](C)CC)C(=O)N(C)CC(=O)N(C)[C@H]3C/C=C\CCN(C3=O)[C@@H](Cc3ccc(C(F)(F)F)cc3)C(=O)N(C)CC(=O)N[C@@H](CCc3ccc(C(F)(F)F)c(OC)c3)C(=O)N2C1 [PP1212] |  |  |  |  |  | 35.6 | AA (a compound having 20 or more is denoted as AA) | A (a compound having 10 or more and less than 20 is denoted as A) | 0.28 |
| CCOC[C@H]1C(=O)N[C@@H]([C@@H](C)CC)C(=O)N(C)CC(=O)N(C)[C@H]2C/C=C\CCN(C2=O)[C@@H](Cc2ccc(C)cc2)C(=O)N(C)CC(=O)N[C@@H](CCc2ccc(C(F)(F)F)c(Cl)c2)C(=O)N2C[C@@H](C)C[C@H]2C(=O)NC2(CC(C)(C)C2)C(=O)N(C)[C@@H](C2CCCC2)C(=O)N(C)[C@H](C(=O)N(CC)CC)CC(=O)N1C [PP2465] | 39.4 | AA (a compound having 20 or more is denoted as AA) | A (a compound having 10 or more and less than 20 is denoted as A) |  | 0.51 |  |  |  |  |
